This is an account of results in patent US6335021B1, “Composition for controlling mood disorders in healthy individuals” (Sigma-Tau HealthScience S.p.A., priority 1997, dated 2002).

In this data set the test system is subjects suffering from dysthymic disorders. Description: Clinical trial of acetyl L-carnitine in patients with mood disorders classifiable as dysthymia (rating scales, alcohol intake, libido, safety). As to conditions: for Hamilton Depression Rating Scale (HDRS): basal 13.9 ± 5.3; for Hamilton Anxiety Rating Scale (HARS): basal 18.6 ± 3.8; for Global Functional (or Social Adaptation) Rating (GFR): basal 63.4 ± 6.6; for alcohol-free days: baseline 6±2. Type of data set: in vivo, human. The source says: The selection of the patients for this trial consisted in a selection by exclusion, in which the medical history criterion was of paramount importance, with exclusion of all patients presenting episodes of major depression and cyclothymic manifestations classifiable as such on the basis of the DMS criteria.
Subjects were therefore recruited whose mood disorders had been dominated by dysphoric manifestations for at least 4 years, classifiable as dysthymia (DMS IV) and a depressive, irritable, cyclothymic personality or temperament on the basis of DMS IV and AXIS II. A total of 20 patients were selected, 12 males and 8 females, matching up to the above-mentioned criteria, and with a mean age of 26±2 years. Six patients (males) also complained of diminished libido and episodes of impotence, while the 8 female patients complained of loss of libido and anorexia. Eight patients (4 males) reported an increased intake of alcoholic beverages, without clinical complications, in the previous 8 months (mean intake 142±15 g/day) and 6 patients (1 male) reported bulimic episodes resulting in a mean weight gain of 2.1±0.5 kg over the previous 6 months.
Each patient was recruited into the study after 3 repeated visits, at monthly intervals, for the purposes of ruling out other concomitant pathologies or disorders according to DMS IV and AXIS II involving definite abuse of psychotropic substances. The objective neurological examination, current laboratory tests (SMA plus), ECG. BP and chest X-rays were all within normal limits.
None of the patients had been treated with SSRI or tricyclic antidepressants during the previous year. In the course of the month preceding the treatment with acetyl L-carnitine all treatments consisting in administration of benzodiazepines during the daytime were discontinued and only the administration of Lorazepam (2.5 mg) at 9 p.m. was allowed for all patients.
Each patient was administered acetyl L-carnitine 1 g per os twice daily (at breakfast- and lunch-time) for two months.
During the clinical interviews, at entry into the study, on day 45 of administration of acetyl L-carnitine and on day 90 (one month after the end of the treatment), patients were administered the following standardized rating scales: Hamilton Depression Rating Scale (HDRS), Hamilton Anxiety Rating Scale (HARS), Global Functional (or Social Adaptation) Rating (GFR).
For the recording of alcohol intake, a self-administered scale was used to record the alcohol-free days as a percentage of the total and the number of daily alcohol intakes, considering the intake of 10 grams as a single intake, in the month preceding treatment, during the treatment months and in the month following acetyl L-carnitine treatment.

The mark [1] stands for this setting: Day 45 of administration, 1 g per os twice daily.
[2] abbreviates: Day 90 (one month after the end of treatment).

Take `CC(=O)O[C@H](CC(=O)[O-])C[N+](C)(C)C` [acetyl L-carnitine]: the “Hamilton Depression Rating Scale (HDRS)” value stood at 9.1 ± 4.8 (Day 45 of administration, 1 g per os twice daily, 20 patients) and 12.8 ± 5.4 (Day 90 (one month after the end of the two-month treatment)). Further, the “Hamilton Anxiety Rating Scale (HARS)” value came to 12.8 ± 4.4 under setting [1] and 16.9 ± 5.0 under setting [2]. Also, the “Global Functional (or Social Adaptation) Rating (GFR)” value by setting is: under setting [1], 75.3 ± 7.9; under setting [2], 67.7 ± 6.8. Moreover, the “symptoms of impotence and diminished libido” value (all male patients, 15 days after the start of treatment) is “disappearance of symptoms of impotence and diminished libido”. Further, the alcohol-free days is reported as 16±3 (during the two months of treatment, on average, self-administered scale) and 8±2 (in the month after treatment). Moreover, the “changes in laboratory tests, BP and ECG as compared to pre-treatment conditions” value (end of treatment) is recorded as “no significant changes”. In addition, where the note is “end of two-month treatment, 1 g per os twice daily”, the “laboratory tests performed at the end of treatment” value is recorded as “normal values”. For the same compound, the “expression of the depressive behavioural component” value (subjects suffering from dysthymic disorders, conclusion of the clinical trial) was “significantly reduces”. In addition, where the note is “under treatment, as against 7.8±1.2”, the “mean number of alcohol intakes (10 grams = a single intake)” value is listed as 6.1±2.1.
